Experiments:
Assay type in all cases: in vivo
[1] = tested on: blackgrass (Alopecurus myosuroides); experiment: Test B postemergence
How it was run: (§1)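 Ratings on a 0 to 100 visual scale (100 complete control) compare treated plants with controls 13 to 15 days after application. Treatments were pre- or postemergence sprays of compound in non-phytotoxic solvent with surfactant.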

[2] = tested on: lambsquarters (Chenopodium album); experiment: Test B postemergence
How it was run: as §1

[3] = tested on: giant foxtail (Setaria viridis); experiment: Test A preemergence, soil drench; details: approx. eleven days
Experimental: (§2) Seeds of barnyardgrass (Echinochloa crus-galli), crabgrass (Digitaria spp.), giant foxtail (Setaria viridis), morning glory (Ipomoea spp.), redroot pigweed (Amaranthus retroflexus) and velvetleaf (Abutilon theophrasti) were planted into a sandy loam soil and treated preemergence by soil drench with test chemicals formulated in a non-phytotoxic solvent mixture which included a surfactant. At the same time, these crop and weed species were also treated postemergence sprayed to runoff with test chemicals formulated in the same manner. Plants ranged in height from two to eighteen cm and were in the one- to two-leaf stage for the postemergence treatment. Treated plants and untreated controls were maintained in a greenhouse for approximately eleven days, after which time all treated plants were compared to untreated controls and visually evaluated for injury. Plant response ratings, summarized in Table A, are based on a 0 to 10 scale where 0 is no effect and 10 is complete control. A dash (-) response means no test results.

[4] = tested on: crabgrass (Digitaria spp.); experiment: Test A preemergence, soil drench; details: approx. eleven days
Experimental: as §2

[5] = tested on: redroot pigweed (Amaranthus retroflexus); experiment: Test A preemergence, soil drench; details: approx. eleven days
Experimental: as §2

[6] = tested on: velvetleaf (Abutilon theophrasti); experiment: Test A preemergence, soil drench; details: approx. eleven days
Experimental: as §2

[7] = tested on: morning glory (Ipomoea spp.); experiment: Test A preemergence, soil drench; details: Morningglory, approx. eleven days
Experimental: as §2

[8] = tested on: barnyardgrass (Echinochloa crus-galli); experiment: Test A preemergence, soil drench; details: approx. eleven days
Experimental: as §2

[9] = tested on: smallflower flatsedge (Cyperus difformis); experiment: Test B flooded paddy test; details: Rate 1000 g/ha, scale of 0 to 100 where 0 is no effect and 100 is complete control, visually evaluated after 13 to 15 days
How it was run: (§3)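 Treatment: formulated chemical applied to flooded paddy plants at 2-leaf stage. Hold: greenhouse, 13–15 days. Scoring: visual comparison to controls, 0 (no effect) to 100 (complete control).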

[10] = tested on: duck salad (Heteranthera limosa); experiment: Test B flooded paddy test; details: Rate 1000 g/ha, scale of 0 to 100 where 0 is no effect and 100 is complete control, visually evaluated after 13 to 15 days
How it was run: as §3

[11] = tested on: barnyardgrass (Echinochloa crus-galli); experiment: Test B flooded paddy test; details: Rate 1000 g/ha, scale of 0 to 100 where 0 is no effect and 100 is complete control, visually evaluated after 13 to 15 days
How it was run: as §3

rice (Oryza saliva) [12] = experiment: Test B flooded paddy test; details: Rate 1000 g/ha, scale of 0 to 100 where 0 is no effect and 100 is complete control, visually evaluated after 13 to 15 days
How it was run: as §3

[13] = tested on: smallflower flatsedge (Cyperus difformis); experiment: Test C flooded paddy test; details: for Flatsedge plant response rating: Flooded Paddy, scale 0 to 100, 0 no effect, 100 complete control; for Plant response rating, Flatsedge: scale 0 to 100 (0 no effect, 100 complete control)
How it was run: (§4)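 Visual injury score, 0 (no effect) to 100 (complete control), relative to controls. Paddy plants treated at 2-leaf stage; greenhouse hold 12–14 d before rating.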

[14] = tested on: duck salad (Heteranthera limosa); experiment: Test C flooded paddy test
How it was run: as §4

[15] = tested on: barnyardgrass (Echinochloa crus-galli); experiment: Test C flooded paddy test
How it was run: as §4

rice (Oryza saliva) [16] = experiment: Test C flooded paddy test
How it was run: as §4

[17] = Rate 125 g/ha, scale 0 (no effect) to 100 (complete control), 13 to 15 days
[18] = Rate 250 g/ha, scale 0 (no effect) to 100 (complete control), 13 to 15 days
[19] = Rate 500 g/ha, scale 0 to 100, 0 is no effect, 100 is complete control, 13 to 15 days
[20] = flooded paddy test, Rate 16 g/ha, visually evaluated after 12 to 14 days, 0 = no effect, 100 = complete control
[21] = Flooded Paddy, Rate 500 g/ha, scale 0 to 100
[22] = Flooded Paddy, Rate 250 g/ha, scale 0 to 100, 0 no effect, 100 complete control
[23] = flooded paddy test, Rate 62 g/ha, scale 0 to 100 (0 no effect, 100 complete control)
[24] = flooded paddy test, Rate 125 g/ha, scale 0 to 100 (0 no effect, 100 complete control)
[25] = Rate 62 g/ha, scale 0 to 100, 0 no effect, 100 complete control

## CC1(C)CCc2cn(C3CCN(c4cccc(C(F)(F)F)c4)C3=O)nc21 (stereo not drawn) [Compound 10]
[1]; [17]
  Plant response rating, Blackgrass: 0
[1]; [18]
  Plant response rating, Blackgrass: 0
[1]; [19]
  Plant response rating, Blackgrass: 0
[2]; [17]
  Plant response rating, Lambsquarters: 0
[2]; [18]
  Plant response rating, Lambsquarters: 100
[2]; [19]
  Plant response rating, Lambsquarters: 0
[3]; Rate 500 g/ha
  Plant response rating (visual injury vs untreated controls): 90
[3]; Rate 2000 g/ha
  Plant response rating (visual injury vs untreated controls): 100
[4]; Rate 500 g/ha
  Plant response rating (visual injury vs untreated controls): 90
[4]; Rate 2000 g/ha
  Plant response rating (visual injury vs untreated controls): 100
[5]; Rate 500 g/ha
  Plant response rating (visual injury vs untreated controls): 100
[5]; Rate 2000 g/ha
  Plant response rating (visual injury vs untreated controls): 100
[6]; Rate 500 g/ha
  Plant response rating (visual injury vs untreated controls): 20
[6]; Rate 2000 g/ha
  Plant response rating (visual injury vs untreated controls): 10
[7]; Rate 500 g/ha
  Plant response rating (visual injury vs untreated controls): 0
[7]; Rate 2000 g/ha
  Plant response rating (visual injury vs untreated controls): 20
[8]; Rate 500 g/ha
  Plant response rating (visual injury vs untreated controls): 100
[8]; Rate 2000 g/ha
  Plant response rating (visual injury vs untreated controls): 100
[9]
  Plant response rating, Flatsedge: 100
[10]
  Plant response rating, Ducksalad: 100
[11]
  Plant response rating, Barnyardgrass: 100
Rice (Oryza saliva) [12]
  Plant response rating, Rice: 60
[13]; Rate 250 g/ha
  Flatsedge plant response rating: 100
[13]; Rate 500 g/ha
  Flatsedge plant response rating: 100
[13]; flooded paddy test, Rate 62 g/ha
  Plant response rating, Flatsedge: 50
[13]; flooded paddy test, Rate 125 g/ha
  Plant response rating, Flatsedge: 80
[13]; [20]
  Plant response rating (scale 0 to 100), Flatsedge: 30
[14]; [21]
  Plant response rating, Ducksalad: 90
[14]; [22]
  Ducksalad plant response rating: 90
[14]; [23]
  Plant response rating, Ducksalad: 0
[14]; [24]
  Plant response rating, Ducksalad: 20
[14]; [20]
  Plant response rating (scale 0 to 100), Ducksalad: 0
[15]; [21]
  Plant response rating, Barnyardgrass: 80
[15]; [22]
  Barnyardgrass plant response rating: 40
[15]; [23]
  Plant response rating, Barnyardgrass: 0
[15]; [24]
  Plant response rating, Barnyardgrass: 0
[15]; [20]
  Plant response rating (scale 0 to 100), Barnyardgrass: 0
Rice (Oryza saliva) [16]; [21]
  Plant response rating, Rice: 60
Rice (Oryza saliva) [16]; [22]
  Rice plant response rating: 10
Rice (Oryza saliva) [16]; [23]
  Plant response rating, Rice: 0
Rice (Oryza saliva) [16]; [24]
  Plant response rating, Rice: 0
Rice (Oryza saliva) [16]; [20]
  Plant response rating (scale 0 to 100), Rice: 0

## O=C1C(n2cccn2)CCN1c1cccc(C(F)(F)F)c1 (stereo not drawn) [Compound 15]
[1]; [17]
  Plant response rating, Blackgrass: 0
[1]; [19]
  Plant response rating, Blackgrass: 30
[2]; [17]
  Plant response rating, Lambsquarters: 0
[2]; [19]
  Plant response rating, Lambsquarters: 0
[3]; Rate 500 g/ha
  Plant response rating (visual injury vs untreated controls): 50
[3]; Rate 2000 g/ha
  Plant response rating (visual injury vs untreated controls): 100
[4]; Rate 500 g/ha
  Plant response rating (visual injury vs untreated controls): 80
[4]; Rate 2000 g/ha
  Plant response rating (visual injury vs untreated controls): 100
[5]; Rate 500 g/ha
  Plant response rating (visual injury vs untreated controls): 30
[5]; Rate 2000 g/ha
  Plant response rating (visual injury vs untreated controls): 100
[6]; Rate 500 g/ha
  Plant response rating (visual injury vs untreated controls): 30
[6]; Rate 2000 g/ha
  Plant response rating (visual injury vs untreated controls): 100
[7]; Rate 500 g/ha
  Plant response rating (visual injury vs untreated controls): 0
[7]; Rate 2000 g/ha
  Plant response rating (visual injury vs untreated controls): 0
[8]; Rate 500 g/ha
  Plant response rating (visual injury vs untreated controls): 10
[8]; Rate 2000 g/ha
  Plant response rating (visual injury vs untreated controls): 10
[9]
  Plant response rating, Flatsedge: 0
[10]
  Plant response rating, Ducksalad: 0
[11]
  Plant response rating, Barnyardgrass: 0
Rice (Oryza saliva) [12]
  Plant response rating, Rice: 0

## Cc1ccn(C2CCN(c3cccc(C(F)(F)F)c3)C2=O)n1 (stereo not drawn) [Compound 16]
[1]; [17]
  Plant response rating, Blackgrass: 0
[1]; [19]
  Plant response rating, Blackgrass: 0
[2]; [17]
  Plant response rating, Lambsquarters: 0
[2]; [19]
  Plant response rating, Lambsquarters: 0
[3]; Rate 500 g/ha
  Plant response rating (visual injury vs untreated controls): 80
[3]; Rate 2000 g/ha
  Plant response rating (visual injury vs untreated controls): 90
[4]; Rate 500 g/ha
  Plant response rating (visual injury vs untreated controls): 100
[4]; Rate 2000 g/ha
  Plant response rating (visual injury vs untreated controls): 100
[5]; Rate 500 g/ha
  Plant response rating (visual injury vs untreated controls): 80
[5]; Rate 2000 g/ha
  Plant response rating (visual injury vs untreated controls): 100
[6]; Rate 500 g/ha
  Plant response rating (visual injury vs untreated controls): 10
[6]; Rate 2000 g/ha
  Plant response rating (visual injury vs untreated controls): 100
[7]; Rate 500 g/ha
  Plant response rating (visual injury vs untreated controls): 0
[7]; Rate 2000 g/ha
  Plant response rating (visual injury vs untreated controls): 20
[8]; Rate 500 g/ha
  Plant response rating (visual injury vs untreated controls): 10
[8]; Rate 2000 g/ha
  Plant response rating (visual injury vs untreated controls): 70
[9]
  Plant response rating, Flatsedge: 0
[10]
  Plant response rating, Ducksalad: 0
[11]
  Plant response rating, Barnyardgrass: 0
Rice (Oryza saliva) [12]
  Plant response rating, Rice: 0

## CC(C)(C)c1ccn(C2OCN(c3cccc(C(F)(F)F)c3)C2=O)n1 (stereo not drawn) [compound 9]
[1]; [25]
  Plant response rating, Blackgrass: 0
[1]; [18]
  Plant response rating, Blackgrass: 0
[2]; [25]
  Plant response rating, Lambsquarters: 70
[2]; [18]
  Plant response rating, Lambsquarters: 80
[3]; Rate 500 g/ha
  Plant response rating (visual injury vs untreated controls): 100
[3]; Rate 2000 g/ha
  Plant response rating (visual injury vs untreated controls): 100
[4]; Rate 500 g/ha
  Plant response rating (visual injury vs untreated controls): 90
[4]; Rate 2000 g/ha
  Plant response rating (visual injury vs untreated controls): 100
[5]; Rate 500 g/ha
  Plant response rating (visual injury vs untreated controls): 100
[5]; Rate 2000 g/ha
  Plant response rating (visual injury vs untreated controls): 100
[6]; Rate 500 g/ha
  Plant response rating (visual injury vs untreated controls): 20
[6]; Rate 2000 g/ha
  Plant response rating (visual injury vs untreated controls): 10
[7]; Rate 500 g/ha
  Plant response rating (visual injury vs untreated controls): 0
[7]; Rate 2000 g/ha
  Plant response rating (visual injury vs untreated controls): 0
[8]; Rate 500 g/ha
  Plant response rating (visual injury vs untreated controls): 100
[8]; Rate 2000 g/ha
  Plant response rating (visual injury vs untreated controls): 100
[9]
  Plant response rating, Flatsedge: 100
[10]
  Plant response rating, Ducksalad: 100
[11]
  Plant response rating, Barnyardgrass: 100
Rice (Oryza saliva) [12]
  Plant response rating, Rice: 100
